Data as given in patent US5051419A, “Prevention or elimination of mycoplasma contamination of animal or plant cell cultures” (Dainippon Pharmaceutical Co., Ltd., priority 1988, dated 1991).

Experiments:
mycoplasma [1] = assay: Anti-mycoplasmal activity (MIC), agar-dilution method, all species of Table 1 together; type: cell-based; settings: in words
Method: The minimum growth inhibitory concentrations (MIC; μg/ml) of the test chemicals were measured by the agar-dilution method.
(1) Preparation of a mycoplasma suspension for inoculation
A stored frozen suspension of mycoplasma (0.2 to 0.3 ml) was inoculated in 2 to 3 ml of a preculture medium to be described later. It was serially diluted tenfold until the dilution ratio reached 10,000 times. These diluted solutions were cultivated at 37° C. for 2 to 7 days. A culture having the highest dilution ratio was selected from those cultures in which a color change of the media was noted as a result of mycoplasma growth. It was diluted to 100 times with the preculture medium to prepare a mycoplasma suspension for inoculation.
(2) Preparation of agar plates containing the test chemicals
A 1,000 μg/ml aqueous solution of each test chemical was prepared (a difficultly-soluble chemical was dissolved by adding an equimolar amount of sodium hydroxide; the same applies hereinafter). The solution was used as a base solution and its twofold serial dilutions were prepared. The diluted solutions were pipetted on plastic petri dishes each in an amount of 1 ml. […]

[2] = test system: spontaneously contaminated human lung carcinoma cells [I]; assay: Activity of eliminating spontaneously contaminated mycoplasmas, cell [I]; type: cell-based, mycoplasma species unknown; human cells; also: key: +: mycoplasma positive; -: mycoplasma negative
Method: Mycoplasma-contaminated L-929 cells were cultivated as described in the preceding section. A 1,000 μg/ml aqueous solution of a test chemical was prepared, and diluted to predetermined concentrations with Eagle's minimum essential medium. The diluted solutions were added to the culture medium. Two petri dishes were used for each concentration of the test chemical, and two circular cover glasses were put in one of them for examination of mycoplasma. No cover glass was put in the other petri dish, and it was used for subcultivation. Cultivation in the test chemical-containing medium was carried out for 4 days, and thereafter, the cultivation was continued for 3 weeks in a drug-free medium. Medium replacement was effected every 3 to 4 days, and subcultivation was carried out once a week. Examination for mycoplasma contamination was performed on the 4th and 7th days, and thereafter every week. The mycoplasmas were detected by the highly specific DNA-fluorochromic staining method.
(§1) The activity of test compound to eliminate mycoplasma contamination was tested as in Test Example 3 on spontaneously contaminated human lung carcinoma cells [I] and human melanoma cells [II].
(§2) The period during which the cultivation was continued in the presence of the test chemicals was 7 days, and the mycoplasma species which infected the cells were unknown.

mycoplasma [3] = settings: in words, background; cited from earlier work
mycoplasma [4] = assay: Activity of eliminating spontaneously contaminated mycoplasmas, Test Example 4 as a whole; type: cell-based
Method: as §1, §2

[5] = test system: chromosomes of animals or plants; assay: Deleterious effects on chromosomes; settings: in words

SMILES	anti-mycoplasmal activity (MIC) compared with control compounds (mycoplasma [1])	mycoplasma elimination ([2]; 0.2 μg/ml, day 0)	mycoplasma elimination ([2]; 0.2 μg/ml, day 7)	mycoplasma elimination ([2]; 0.2 μg/ml, day 14)	mycoplasma elimination ([2]; 0.2 μg/ml, day 28)	mycoplasma elimination ([2]; 0.39 μg/ml, day 0)	mycoplasma elimination ([2]; 0.39 μg/ml, day 7)	mycoplasma elimination ([2]; 0.39 μg/ml, day 14)	mycoplasma elimination ([2]; 0.39 μg/ml, day 28)	minimum growth inhibitory concentration (MIC) for mycoplasma (mycoplasma [3])	mode of action on mycoplasma (mycoplasma [3])	minimal effective concentration (mycoplasma [4]; Mycoplasma, 168 h, spontaneously contaminated cells [I] and [II]) [µg/mL]	mycoplasma eliminating concentration relative to control compound 1 (mycoplasma [4]; fraction of that of control compound 1)	mycoplasma eliminating concentration relative to control compound 2 (ciprofloxacin) (mycoplasma [4]; fraction of that of control compound 2)	deleterious effects on chromosomes [5]	mycoplasma elimination ([2]; 0.1 μg/ml, day 0)	mycoplasma elimination ([2]; 0.1 μg/ml, day 7)	mycoplasma elimination ([2]; 0.1 μg/ml, day 14)	mycoplasma elimination ([2]; 0.1 μg/ml, day 28)
CC1CN(c2c(F)c(N)c3c(=O)c(C(=O)O)cn(C4CC4)c3c2F)CCN1 (stereo not drawn) [Compound 1]	better than those of control compounds 2 to 4	+	+	+	+	+	-	-	-										
CN(C)c1ccc(O)c2c1C[C@H]1C[C@H]3[C@H](N(C)C)C(O)=C(C(N)=O)C(=O)[C@@]3(O)C(O)=C1C2=O [Compound 3, minocycline]										low	only act bacteriostatically and not mycoplasmacidally								
NCC1CN(c2c(F)c(N)c3c(=O)c(C(=O)O)cn(C4CC4)c3c2F)CCO1 (stereo not drawn) [Compound A, 5-amino-7-(2-aminomethylmorpholino)-1-cyclopropyl-6,8-difluoro-1,4-dihydro-4-oxoquinoline-3-carboxylic acid]	more potent than those of control compounds 1 to 4	+	-	-	-							0.2	1/2	1/32	excellent	+	+	+	+
